Assay results: patent publication US4088772A, “Methanodibenzocycloheptapyrroles” (E. I. Du Pont de Nemours and Company, priority 1975, dated 1978)
Counter-ions that a name gives are not always drawn. Like-named read-outs stand apart in the source and are kept apart here.

Columns and labels:
[1] = test system: phenylquinone-induced writhing; test: Phenylquinone writhing test (analgesia); type: in vivo, mouse (Carworth CF1 S female); details: for ED50: Mus musculus
Text: This mouse test is predictive of analgesic response in humans. [E. Siegmund, R. Cadmus and G. Lee, Proc. Soc.
ED50 values were obtained graphically from the data.

female white mice = test: animal or person; details: Mus musculus, po
in vivo = details: mouse, in vivo, po
[2] = read-out: Catatonia ED50, Table 1, oral, mice
[3] = read-out: Exploratory Loss Visual ED50, Table 1, oral, mice
[4] = read-out: Muscle Tone ED50, Table 1, oral, mice
[5] = read-out: Reflexes Grip ED50, Table 1, oral, mice
[6] = read-out: Reflexes Lift ED50, Table 1, oral, mice
[7] = read-out: Catatonia ED50, Table III, oral, mice
[8] = read-out: Exploratory Loss Visual ED50, Table III, oral, mice
[9] = read-out: Muscle Tone ED50, Table III, oral, mice
[10] = read-out: Ptosis ED50, Table III, oral, mice
[11] = read-out: Reflexes Grip ED50, Table III, oral, mice
[12] = read-out: Reflexes Lift ED50, Table III, oral, mice
[13] = read-out: Reflexes Pinna ED50, Table III, oral, mice
[14] = read-out: Ptosis ED50, Table 1, oral, mice
[15] = read-out: Reflexes Pinna ED50, Table 1, oral, mice

Structure (SMILES)	ED50 ([1]; po, Table 1, mice)	ED50 (female white mice; [2])	ED50 (female white mice; [3])	ED50 (female white mice; [4])	ED50 (female white mice; [5])	ED50 (female white mice; [6])	LD50 at 24 h (in vivo)	ED50 ([1]; po, Table III, mice)	ED50 (female white mice; [7])	ED50 (female white mice; [8])	ED50 (female white mice; [9])	ED50 (female white mice; [10])	ED50 (female white mice; [11])	ED50 (female white mice; [12])	ED50 (female white mice; [13])	ED50 (female white mice; [14])	ED50 (female white mice; [15])	other results
c1ccc2c(c1)[C@@H]1C[C@@]3(CN(CC4CCCO4)C[C@H]23)c2ccccc21 (some centres unmarked) [Example 62, 2-(2-Tetrahydrofurylmethyl)-2,3,8,12b-tetrahydro-1H-3a,8-methanodibenzo[3,4:6,7]cyclohepta[1,2-c]pyrrole]	7 mg/kg	20 mg/kg	12 mg/kg	20 mg/kg	200 mg/kg	20 mg/kg	> 324 mg/kg	–	–	–	–	–	–	–	–	–	–	–
CC(=NO)c1ccc2c(c1)[C@]13C[C@H]2c2ccccc2[C@H]1CN(CC1CCCC1)C3 (relative stereo) [Example 71, 5-Acetyl-2-cyclopentylmethyl-2,3,8,12b-tetrahydro-1H-3a,8-methanodibenzo[3,4:6,7]cyclohepta[1,2-c]pyrrole Oxime Hydrochloride]	–	–	–	–	–	–	> 324 mg/kg	21 mg/kg	100 mg/kg	7 mg/kg	36 mg/kg	< 4 mg/kg	300 mg/kg	60 mg/kg	20 mg/kg	–	–	–
N#Cc1ccc2c(c1)[C@]13C[C@H]2c2ccccc2[C@H]1CN(CC1CCCC1)C3 (relative stereo) [Example 85, 5-Cyano-2-cyclopentylmethyl-2,3,8,12b-tetrahydro-1H-3a,8-methanodibenzo[3,4:6,7]cyclohepta[1,2-c]-pyrrole Hydrochloride]	–	–	–	–	–	–	300 mg/kg	1.7 mg/kg	15 mg/kg	4.4 mg/kg	15 mg/kg	4.4 mg/kg	> 324 mg/kg	17 mg/kg	9.7 mg/kg	–	–	–
c1ccc2c(c1)[C@@H]1C[C@@]3(CN(C4CC4)C[C@H]23)c2ccccc21 (relative stereo) [Example 46, 2-Cyclopropyl-2,3,8,12b-tetrahydro-1H-3a,8-methanodibenzo[3,4:6,7]cyclohepta[1,2-c]pyrrole]	–	200 mg/kg	200 mg/kg	200 mg/kg	300 mg/kg	200 mg/kg	> 324 mg/kg	–	–	–	–	–	–	–	–	60 mg/kg	300 mg/kg	ED50 ([1]; Table 1, oral, mice): 90 mg/kg; ED50 (in vivo; Tremors ED50, Table 1, mice): > 324 mg/kg
CCC(CC)CN1CC2c3ccccc3C3CC2(C1)c1ccccc13 (centres unmarked) [Example 17, 2-(2-Ethylbutyl)-2,3,8,12b-tetrahydro-1H-3a,8-methanodibenzo[3,4:6,7]cyclohepta[1,2-c]pyrrole]	48 mg/kg	36 mg/kg	200 mg/kg	100 mg/kg	> 324 mg/kg	200 mg/kg	> 324 mg/kg	–	–	–	–	–	–	–	–	100 mg/kg	200 mg/kg	ED50 (in vivo): > 324 mg/kg
CC(C)CCN1C[C@@H]2c3ccccc3[C@@H]3C[C@@]2(C1)c1ccccc13 (relative stereo) [Example 60, 2-(3-Methylbutyl)-2,3,8,12b-tetrahydro-1H-3a, 8-methanodibenzo[3,4:6,7]cyclohepta[1,2-c]pyrrole]	–	20 mg/kg	20 mg/kg	20 mg/kg	200 mg/kg	60 mg/kg	> 324 mg/kg	–	–	–	–	–	–	–	–	36 mg/kg	36 mg/kg	ED50 ([1]; Table 1, oral, mice): 15 mg/kg
c1ccc2c(c1)C1CC3(CN(CC4CCCCCC4)CC23)c2ccccc21 (centres unmarked) [Example 32, 2-Cycloheptylmethyl-2,3,8,12b-tetrahydro-1H-3a,8-methanodibenzo[3,4:6,7]cyclohepta[1,2-c]pyrrole]	2.9 mg/kg	12 mg/kg	7 mg/kg	36 mg/kg	200 mg/kg	20 mg/kg	> 324 mg/kg	–	–	–	–	–	–	–	–	< 4 mg/kg	60 mg/kg	ED50 (in vivo): > 324 mg/kg
CC1CCCC1CN1C[C@@H]2c3ccccc3[C@@H]3C[C@@]2(C1)c1ccccc13 (some centres unmarked) [Example 51, 2-(2-Methylcyclopentylmethyl)-2,3,8,12b-tetrahydro-1H-3a,8-methanodibenzo[3,4:6,7]cyclohepta[1,2-c]pyrrole]	10 mg/kg	60 mg/kg	100 mg/kg	60 mg/kg	300 mg/kg	60 mg/kg	> 324 mg/kg	–	–	–	–	–	–	–	–	36 mg/kg	36 mg/kg	ED50 (in vivo): > 324 mg/kg
ON=Cc1ccc2c(c1)[C@]13C[C@H]2c2ccccc2[C@H]1CN(CC1CCCC1)C3 (relative stereo) [Example 83, 5-Formyl-2-cyclopentylmethyl-2,3,8,12b-tetrahydro-1H-3a,8-methanodibenzo[3,4:6,7]cyclohepta[1,2-c]pyrrole Oxime Hydrochloride]	–	–	–	–	–	–	> 324 mg/kg	2.7 mg/kg	36 mg/kg	20 mg/kg	36 mg/kg	36 mg/kg	> 324 mg/kg	60 mg/kg	20 mg/kg	–	–	–
Clc1ccc2c(c1)[C@H]1CN(CC3CCCC3)C[C@@]13C[C@@H]2c1ccc(Cl)cc13 (relative stereo) [Example 79, 5,11-Dichloro-2-cyclopentylmethyl-2,3,8,12b-tetrahydro1H-3a,8-methanodibenzo[3,4:6,7]cyclohepta[1,2-c]pyrrole Hydrochloride]	–	–	–	–	–	–	> 324 mg/kg	–	20 mg/kg	7 mg/kg	36 mg/kg	7 mg/kg	> 324 mg/kg	36 mg/kg	7 mg/kg	–	–	Phenylquinone Analgesia ED50 ([1]; Table III, oral, mice): active
CNS(=O)(=O)c1ccc2c(c1)[C@]13C[C@H]2c2ccccc2[C@H]1CN(CC1CCCC1)C3 (relative stereo) [Example 88, 2-Cyclopentylmethyl-2,3,8,12b-tetrahydro-1H-3a,8-methanodibenzo[3,4:6,7]cyclohepta[1,2-c]pyrrole-5-N-methylsulfonamide Hydrochloride]	–	–	–	–	–	–	> 324 mg/kg	< 130 mg/kg	300 mg/kg	20 mg/kg	200 mg/kg	36 mg/kg	> 324 mg/kg	200 mg/kg	100 mg/kg	–	–	–
c1ccc2c(c1)C1CC3(CN(CCC4CCCC4)CC23)c2ccccc21 (centres unmarked) [Example 22, 2-(2-Cyclopentylethyl)-2,3,8,12b-tetrahydro-1H-3a,8-methanodibenzo[3,4:6,7]cyclohepta[1,2-c]pyrrole]	10 mg/kg	18 mg/kg	32 mg/kg	3.6 mg/kg	265 mg/kg	17 mg/kg	> 324 mg/kg	–	–	–	–	–	–	–	–	–	11 mg/kg	ED50 (female white mice; read-out: Ptosis ED50, Table 1, Extrapolated value): 3 mg/kg; ED50 (in vivo): > 324 mg/kg
c1ccc2c(c1)[C@@H]1C[C@@]3(CN(CC4CCCC4)C[C@H]23)c2ccccc21 (relative stereo) [Cyclopentylmethyl (free base), 2-Cyclopentylmethyl-2,3,8,12b-tetrahydro-1H-3a,8-methanodibenzo[3,4:6,7]cyclohepta[1,2-c]pyrrole]	< 130 mg/kg	7 mg/kg	< 3 mg/kg	< 3 mg/kg	260 mg/kg	4.5 mg/kg	> 324 mg/kg	–	–	–	–	–	–	–	–	< 3 mg/kg	< 3 mg/kg	–
Oc1ccc2c(c1)[C@]13C[C@H]2c2ccccc2[C@H]1CN(CC1CCCC1)C3 (relative stereo) [Example 68, 5-Hydroxy-2-cyclopentylmethyl-2,3,8,12b-tetrahydro-1H-3a,8-methanodibenzo[3,4:6,7]cyclohepta[1,2-c]pyrrole Hydrochloride]	–	–	–	–	–	–	> 324 mg/kg	19 mg/kg	20 mg/kg	12 mg/kg	20 mg/kg	12 mg/kg	> 324 mg/kg	60 mg/kg	36 mg/kg	–	–	–
O=C(O)c1ccc2c(c1)[C@]13C[C@H]2c2ccccc2[C@H]1CN(CC1CCCC1)C3 (relative stereo) [Example 73, 2-Cyclopentylmethyl-2,3,8,12b-tetrahydro-1H-3a,8-methanodibenzo[3,4:6,7]cyclohepta[1,2-c]pyrrole-5-carboxylic Acid Hydrochloride]	–	–	–	–	–	–	> 324 mg/kg	21 mg/kg	60 mg/kg	60 mg/kg	36 mg/kg	36 mg/kg	> 324 mg/kg	100 mg/kg	36 mg/kg	–	–	–
C=CCN1CC2c3ccccc3C3CC2(C1)c1ccccc13 (centres unmarked) [Example 10, 2-Allyl-2,3,8,12b-tetrahydro-1H-3a,8-methanodibenzo-[3,4:6,7]cyclohepta[1,2-c]pyrrole]	–	5 mg/kg	4.5 mg/kg	3.2 mg/kg	150 mg/kg	6 mg/kg	> 324 mg/kg	–	–	–	–	–	–	–	–	< 3 mg/kg	4 mg/kg	ED50 ([1]; Table 1, oral, mice): 1.9 mg/kg; ED50 (in vivo; Tremors ED50, Table 1, mice): 187 mg/kg
C=C1CC(CN2CC3c4ccccc4C4CC3(C2)c2ccccc24)C1 (centres unmarked) [Example 20, 2-(3-Methylenecyclobutylmethyl)-2,3,8,12b-tetrahydro-1H-3a,8-methanodibenzo[3,4:6,7]cyclohepta[1,2-c]pyrrole]	8.2 mg/kg	13 mg/kg	21 mg/kg	15 mg/kg	362 mg/kg	21 mg/kg	> 324 mg/kg	–	–	–	–	–	–	–	–	11 mg/kg	24 mg/kg	ED50 (in vivo): > 324 mg/kg
